Results taken from patent US20060018981A1, “Sanitization process by using bacteriostatic or bactericidal products derived from vegetables” (priority 2004, published 2006).

Format: physicochemical
Experimental: Substances B and C Evaporation Rate at Room Temperature Substances B and C were inserted in a thermostated chamber at room temperature and the substance weight/surface ratio for both of them was evaluated. Both substances B and C, alone or in mixture with a gel, were controlled and the loss of weight versus time was recorded. The resulting data of the test were interpolated so as to obtain two algorithms indicating, respectively, the evaporation rate of B and C. To this end two different interpolation methods were used. The algorithm adopted for the first interpolation method is: po/[…] uti (1) The algorithm adopted for the second interpolation method is: po/p=(A×T1⁄2)/(T1⁄2+min uti) (2) Parameters used in algorithms (1) and (2) have the following meaning: p: initial weight of the antibacterial substances expressed in g; po: weight of the antibacterial substances at time t, expressed in g; a, b, A: correlation parameters; and T1⁄2: half-life time of the antibacterial substances.

Substance	parameter T1/2 (half-life time of the antibacterial substances)
silvester pine oil [B: silvester pine oil]	854737
lavender oil [C: lavender oil]	46856
